Data reported in US6630569B1, “Ectoparasiticide agents” (priority 1998, dated 2003).

What was measured:
[1] = tested on: Lucilia cuprina larvae (1st-3rd stage); experiment: Blowfly larvae test / development-inhibitory action; assay type: in vivo; conditions: 100% = no flies hatched
Description: Blowfly Larvae Test/Development-inhibitory Action
Test animals: Lucilia cuprina larvae (1st-3rd stage)
(§1) Solvent: Dimethyl sulphoxide
20 mg of active compound are dissolved in one ml of dimethyl sulphoxide. To prepare a suitable formulation, the solution of active compound is diluted with water to the particular desired concentration.
About 20 Lucilia cuprina larvae are introduced into a test tube which contains about 1 cm^3 of horse meat and 0.5 ml of the preparation of active compound to be tested. After 24 hours and 48 hours, the effectiveness of the preparation of active compound is determined. The test tubes are transferred into beakers whose bottom is covered with sand. After a further two days, the test tubes are removed and the pupae are counted.
The effect of the preparation of active compound is assessed by the number of flies which have hatched after 1.5 times the development period of an untreated control. 100% means that no flies have hatched; 0% means that all flies have hatched normally.

[2] = tested on: Adults of Ctenocephalides felis; experiment: Test with cat fleas / oral uptake; assay type: in vivo; conditions: dosage 100 μg; mortality after 24 h, blood feeding
Description: Test with Cat Fleas/oral Uptake
Test animals: Adults of Ctenocephalides felis
Solvent: Dimethyl sulphoxide (DMSO)
7.5 μl of this formulation are added to 3.5 ml of citrated cattle blood and stirred.
20 unfed adult fleas (Ctenocephalides felis, strain “Georgi”) are placed into a chamber (Ø 2.5 cm) whose top and bottom are closed with gauze. A metal cylinder whose underside is covered with parafilm is placed onto the chamber. […] Whereas the blood is warmed to 37° C., the temperature in the area of the flea chambers is adjusted to 25° C. Controls are mixed with the same volume of DMSO, without addition of a compound. The determinations are carried out in triplicate.
After 24 h, the mortality in % (=dead fleas) is determined, using imidacloprid as standard.

silkworms = conditions: in vivo; cited from earlier work
[3] = tested on: Adult females of Boophilus microplus (parkhurst strain, SP-resistant); experiment: Test with resistant monoxenous cattle ticks / SP-resistant Parkhurst strain (injection into abdomen); assay type: in vivo; conditions: dosage 20 μg injected; 100% = no fertile eggs
Description: Test with Resistant Monoxenous Cattle Ticks/SP-resistant Parkhurst Strain
Test animals: Adult females of Boophilus microplus (parkhurst strain, SP-resistant) which have sucked themselves full
as §1
20 mg of active compound are dissolved in one ml of dimethyl sulphoxide, more dilute concentrations are prepared by dilution in the same solvent.
The test is carried out in five replications. 1 μl of the solutions is injected into the abdomen, and the animals are transferred into dishes and kept in a climatized room. After seven days, the activity is checked by examination for the position of fertile eggs. Eggs whose fertility is not visible from the outside are stored in glass tubes in a controlled-environment cabinet until the larvae have hatched after about 24 days. An activity of 100% means that the tick has not produced any fertile eggs.

[4] = tested on: All stages of Boophilus microplus, pyrethroid-resistant strain; experiment: In vivo test on ticks / mini-dip on cattle; conditions: dosage 1000 μg, 100% = no ticks with fertile eggs
Description: In vivo Test on Ticks/mini-dip on Cattle
Test object: All stages of Boophilus microplus (larvae, metalarvae, nymphs, metanymphs and adults) pyrethroid-resistant strain.
Solution: Active compound 30% strength in methyl glycol and emulsifier NP 10 in a ratio of 1:1.
For the treatment of the cattle, concentrations of 1000, 300, 100, 30, 10 and 1 ppm are used, in a volume of 200 ml. The cattle hide to be treated is wetted with the solution of active compound for 1 min.
14×, in intervals of two days, cattle is infected with about 3000 14- to 28-day-old larvae of B. microplus which have not been fed. On day 23 p.i., defined areas on the surface of the cattle skin are wetted with the abovementioned preparation of active compound. From day 24 to 45 p.i., the female adult ticks which develop are counted, and the fertility of the eggs laid by these ticks is checked and used to determine the activity of the preparation of active compound.

Compound	Activity (in %) ([1]; dosage 100 ppm) [%]	Activity (in %) ([1]; dosage 1000 ppm) [%]	Activity (in %) [2] [%]	insecticidal activity against silkworms (silkworms)	Activity (in %) [3] [%]	Activity (in %) [4] [%]
CC(C)C[C@@H]1C(=O)O[C@@H](Cc2ccc(N3CCOCC3)cc2)C(=O)N(C)[C@H](CC(C)C)C(=O)O[C@@H](C)C(=S)N(C)[C@H](CC(C)C)C(=O)O[C@@H](Cc2ccc(N3CCOCC3)cc2)C(=O)N(C)[C@H](CC(C)C)C(=O)O[C@@H](C)C(=O)N1C [compound 9, Cyclo-(N-methyl-L-leucinyl-D-thiolactyl-N-methyl-L-leucinyl-D-4-morpholino-phenyllactyl-N-methyl-L-leucinyl-D-lactyl-N-methyl-L-leucinyl-D-4-N-morpholinophenyllactyl-)]	100	100	100			
CC(C)C[C@H]1C(=O)O[C@H](C(C)C)C(=O)N(C)[C@@H](CC(C)C)C(=O)O[C@H](C(C)C)C(=O)N(C)[C@@H](CC(C)C)C(=O)O[C@H](C(C)C)C(=O)N(C)[C@@H](CC(C)C)C(=O)O[C@H](C(C)C)C(=O)N1C [bassianolide]				insecticidal activity		
CC(C)C[C@H]1C(=O)O[C@H](Cc2ccccc2)C(=O)N(C)[C@@H](CC(C)C)C(=O)O[C@H](C)C(=O)N(C)[C@@H](CC(C)C)C(=O)O[C@H](Cc2ccccc2)C(=O)N(C)[C@@H](CC(C)C)C(=O)O[C@H](C)C(=O)N1C [PF 1022A, cyclo(-N-methyl-L-leucinyl-D-lactyl-N-methyl-L-leucinyl-D-phenyllactyl-N-methyl-L-leucinyl-D-lactyl-N-methyl-L-leucinyl-D-phenyllactyl-)]		0	0	insecticidal activity	0	0
